Measurements reported in patent US12257287B2, “Glucagon-derived peptide and use thereof” (Tianjin Institute of Pharmaceutical Research Co., Ltd., priority 2018, dated 2025).
Converted amounts (≈) assume the structure as drawn. Numbered stars: 1 amine (or outer) side, 2 acyl side, 3 side chain; on linkers, the order of the positions; unused ones are H or OH. Square brackets hold non-standard residues; d marks the D form. Side chains are listed from the residue outwards. Peptide text beside a SMILES is read from it. * marks the point of attachment. C18 diacid = O=C(O)CCCCCCCCCCCCCCCCC(=O)*; γGlu = O=C(O)[C@H](CCC(=O)[*:2])N[*:1]; AEEA = NCCOCCOCC(=O)O; Aib = CC(C)(N)C(=O)O

Assays:
physchem = type: physicochemical
GC receptor = biological target: T1, GC receptor (Homo sapiens, UniProt P47871); assay: GC receptor mediated cAMP production in vitro (HEK293 cells transfected with GC receptor); type: cell-based; conditions: 20 min at 37° C., read-out: GCGR (nM EC50)
T1 construct: expressed in transfected cells; host or cells: HEK293 cells
Description: The medium was removed, the cells were lysed, and cAMP values were detected referring to the detection method described for the assay kit.

[1] = pH 7.5, Solubility, pH 7.5, 10 mM phosphate buffer
[2] = pH 7.5, Solubility, pH 7.5, 20 mM phosphate buffer
[3] = pH 8, Solubility, pH 8.0, 10 mM phosphate buffer
[4] = pH 8, Solubility, pH 8.0, 20 mM phosphate buffer
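Throughout, for Solubility, pH 7.5, 20 mM phosphate buffer: compound added at 2 mg per mL of phosphate buffer, with the dissolved amount determined in the supernatant.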
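Throughout, for Solubility: compound added at 2 mg per mL of phosphate buffer, with the dissolved amount determined in the supernatant.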

T1 sequence (P47871 26-477): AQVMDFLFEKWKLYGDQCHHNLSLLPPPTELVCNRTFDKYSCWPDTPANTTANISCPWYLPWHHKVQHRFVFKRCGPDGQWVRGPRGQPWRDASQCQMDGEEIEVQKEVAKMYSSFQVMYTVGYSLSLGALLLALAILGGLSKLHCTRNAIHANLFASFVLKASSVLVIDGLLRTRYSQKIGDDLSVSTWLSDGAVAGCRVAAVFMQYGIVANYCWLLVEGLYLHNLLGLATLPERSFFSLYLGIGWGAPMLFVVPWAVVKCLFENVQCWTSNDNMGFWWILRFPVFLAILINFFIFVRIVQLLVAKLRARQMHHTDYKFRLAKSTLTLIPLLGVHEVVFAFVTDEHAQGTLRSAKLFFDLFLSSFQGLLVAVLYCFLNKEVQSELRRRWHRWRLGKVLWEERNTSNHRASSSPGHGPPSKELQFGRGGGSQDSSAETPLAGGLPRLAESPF

Compound	solubility (physchem; [1]) [µg/mL]	solubility (physchem; [2]) [µg/mL]	EC50 (GC receptor) [nM]	Solubility, pH 7.5, 20 mM phosphate buffer (physchem; pH 7.5)	solubility (physchem; [3]) [µg/mL]	solubility (physchem; [4]) [µg/mL]
CCCCCCCCCCCCCCCC(=O)N[C@@H](CCC(=O)N[C@@H](CCC(=O)NCCCC[C@H](NC(=O)[C@H](CC(=O)O)NC(=O)[C@H](CO)NC(=O)[C@@H](NC(=O)[C@H](Cc1ccccc1)NC(=O)[C@@H](NC(=O)CNC(=O)[C@H](CCC(N)=O)NC(=O)C(C)(C)NC(=O)[C@@H](N)Cc1c[nH]cn1)[C@@H](C)O)[C@@H](C)O)C(=O)N[C@@H](CO)C(=O)N[C@@H](CCCCN)C(=O)N[C@@H](Cc1ccc(O)cc1)C(=O)N[C@@H](CC(C)C)C(=O)N[C@@H](CCC(=O)O)C(=O)N[C@@H](CCC(=O)O)C(=O)N[C@@H](CCCNC(=N)N)C(=O)N[C@@H](C)C(=O)N[C@@H](C)C(=O)N[C@@H](CCCCN)C(=O)N[C@@H](CCC(=O)O)C(=O)N[C@@H](Cc1ccccc1)C(=O)N[C@H](C(=O)N[C@@H](C)C(=O)N[C@@H](Cc1c[nH]c2ccccc12)C(=O)N[C@@H](CC(C)C)C(=O)N[C@@H](CCC(=O)O)C(=O)NCC(=O)NCC(=O)N1CCC[C@H]1C(=O)N[C@@H](CO)C(=O)N[C@@H](CO)C(=O)NCC(N)=O)[C@@H](C)CC)C(=O)O)C(=O)O [Compound 21] (HELM PEPTIDE1{H.[Aib].Q.G.T.F.T.S.D.K.S.K.Y.L.E.E.R.A.A.K.E.F.I.A.W.L.E.G.G.P.S.S.G.[am]}|PEPTIDE2{[CCCCCCCCCCCCCCCC(=O)[*:2]].[gGlu].[gGlu]}$PEPTIDE1,PEPTIDE2,10:R3-3:R2$$$V2.0; N-terminus assumed)	> 2000	> 2000	0.175	–	–	–
CCCCCCCCCCCCCCCC(=O)N[C@@H](CCC(=O)N[C@@H](CCC(=O)NCCCC[C@H](NC(=O)[C@H](CC(=O)O)NC(=O)[C@H](CO)NC(=O)[C@@H](NC(=O)[C@H](Cc1ccccc1)NC(=O)[C@@H](NC(=O)CNC(=O)[C@H](CCC(N)=O)NC(=O)C(C)(C)NC(=O)[C@@H](N)Cc1c[nH]cn1)[C@@H](C)O)[C@@H](C)O)C(=O)N[C@@H](CO)C(=O)N[C@@H](CCCCN)C(=O)N[C@@H](Cc1ccc(O)cc1)C(=O)N[C@@H](CC(C)C)C(=O)N[C@@H](CCC(=O)O)C(=O)N[C@@H](CCC(=O)O)C(=O)N[C@@H](CCCNC(=N)N)C(=O)N[C@@H](C)C(=O)N[C@@H](C)C(=O)N[C@@H](CCCCN)C(=O)N[C@@H](CCC(=O)O)C(=O)N[C@@H](Cc1ccccc1)C(=O)N[C@H](C(=O)N[C@@H](CCC(=O)O)C(=O)N[C@@H](Cc1c[nH]c2ccccc12)C(=O)N[C@@H](CC(C)C)C(=O)N[C@@H](CC(C)C)C(=O)N[C@@H](CCC(=O)O)C(=O)N[C@@H](C)C(=O)NCC(=O)NCC(=O)N1CCC[C@H]1C(=O)N[C@@H](CO)C(=O)N[C@@H](CO)C(=O)NCC(N)=O)C(C)C)C(=O)O)C(=O)O [Compound 25] (HELM PEPTIDE1{H.[Aib].Q.G.T.F.T.S.D.K.S.K.Y.L.E.E.R.A.A.K.E.F.V.E.W.L.L.E.A.G.G.P.S.S.G.[am]}|PEPTIDE2{[CCCCCCCCCCCCCCCC(=O)[*:2]].[gGlu].[gGlu]}$PEPTIDE1,PEPTIDE2,10:R3-3:R2$$$V2.0; N-terminus assumed)	300 (≈ 69.2 µM)	100 (≈ 23.1 µM)	0.278	–	500 (≈ 115 µM)	200 (≈ 46.1 µM)
CCCCCCCCCCCCCCCC(=O)N[C@@H](CCC(=O)N[C@@H](CCC(=O)NCCCC[C@H](NC(=O)[C@H](CC(=O)O)NC(=O)[C@H](CO)NC(=O)[C@@H](NC(=O)[C@H](Cc1ccccc1)NC(=O)[C@@H](NC(=O)CNC(=O)[C@H](CCC(N)=O)NC(=O)C(C)(C)NC(=O)[C@@H](N)Cc1c[nH]cn1)[C@@H](C)O)[C@@H](C)O)C(=O)N[C@@H](CO)C(=O)N[C@@H](CCCCN)C(=O)N[C@@H](Cc1ccc(O)cc1)C(=O)N[C@@H](CC(C)C)C(=O)N[C@@H](CCC(=O)O)C(=O)N[C@@H](CCC(=O)O)C(=O)N[C@@H](CCCNC(=N)N)C(=O)N[C@@H](C)C(=O)N[C@@H](C)C(=O)N[C@@H](CCCCN)C(=O)N[C@@H](CCC(=O)O)C(=O)N[C@@H](Cc1ccccc1)C(=O)N[C@H](C(=O)N[C@@H](C)C(=O)N[C@@H](Cc1c[nH]c2ccccc12)C(=O)N[C@@H](CC(C)C)C(=O)N[C@@H](CC(C)C)C(=O)N[C@@H](CCC(=O)O)C(=O)NCC(=O)NCC(=O)N1CCC[C@H]1C(=O)N[C@@H](CO)C(=O)N[C@@H](CO)C(=O)NCC(N)=O)[C@@H](C)CC)C(=O)O)C(=O)O [Compound 16] (HELM PEPTIDE1{H.[Aib].Q.G.T.F.T.S.D.K.S.K.Y.L.E.E.R.A.A.K.E.F.I.A.W.L.L.E.G.G.P.S.S.G.[am]}|PEPTIDE2{[CCCCCCCCCCCCCCCC(=O)[*:2]].[gGlu].[gGlu]}$PEPTIDE1,PEPTIDE2,10:R3-3:R2$$$V2.0; N-terminus assumed)	140 (≈ 33.2 µM)	50 (≈ 11.8 µM)	0.092	–	160 (≈ 37.9 µM)	200 (≈ 47.4 µM)

Other lines, results leading:

solubility (physchem; [1]) [µg/mL]	solubility (physchem; [2]) [µg/mL]	EC50 (GC receptor) [nM]	Solubility, pH 7.5, 20 mM phosphate buffer (physchem; pH 7.5)	solubility (physchem; [3]) [µg/mL]	solubility (physchem; [4]) [µg/mL]	Compound
> 2000	> 2000	0.261	–	–	–	CCCCCCCCCCCCCCCC(=O)N[C@@H](CCC(=O)N[C@@H](CCC(=O)NCCCC[C@H](NC(=O)[C@H](C)NC(=O)[C@H](CCCCN)NC(=O)[C@H](CCCNC(=N)N)NC(=O)[C@H](CCC(=O)O)NC(=O)[C@H](CC(=O)O)NC(=O)[C@H](CC(C)C)NC(=O)[C@H](Cc1ccc(O)cc1)NC(=O)[C@H](CCCCN)NC(=O)[C@H](CO)NC(=O)[C@H](Cc1ccc(O)cc1)NC(=O)[C@H](CC(=O)O)NC(=O)[C@H](CO)NC(=O)[C@@H](NC(=O)[C@H](Cc1ccccc1)NC(=O)[C@@H](NC(=O)CNC(=O)[C@H](CCC(N)=O)NC(=O)C(C)(C)NC(=O)[C@@H](N)Cc1c[nH]cn1)[C@@H](C)O)[C@@H](C)O)C(=O)N[C@@H](CCC(=O)O)C(=O)N[C@@H](Cc1ccccc1)C(=O)N[C@H](C(=O)N[C@@H](CCC(=O)O)C(=O)N[C@@H](Cc1c[nH]c2ccccc12)C(=O)N[C@@H](CC(C)C)C(=O)N[C@@H](CCC(=O)O)C(=O)NCC(=O)NCC(=O)N1CCC[C@H]1C(=O)N[C@@H](CO)C(=O)N[C@@H](CO)C(=O)NCC(N)=O)C(C)C)C(=O)O)C(=O)O [Compound 69] (HELM PEPTIDE1{H.[Aib].Q.G.T.F.T.S.D.Y.S.K.Y.L.D.E.R.K.A.K.E.F.V.E.W.L.E.G.G.P.S.S.G.[am]}|PEPTIDE2{[CCCCCCCCCCCCCCCC(=O)[*:2]].[gGlu].[gGlu]}$PEPTIDE1,PEPTIDE2,20:R3-3:R2$$$V2.0; N-terminus assumed)
80 (≈ 18.1 µM)	–	0.197	Insoluble	200 (≈ 45.2 µM)	100 (≈ 22.6 µM)	CCCCCCCCCCCCCCCC(=O)N[C@@H](CCC(=O)N[C@@H](CCC(=O)NCCCC[C@H](NC(=O)[C@H](C)NC(=O)[C@H](CCCNC(=N)N)NC(=O)[C@H](CCCCN)NC(=O)[C@H](CCC(=O)O)NC(=O)[C@H](CCC(=O)O)NC(=O)[C@H](CC(C)C)NC(=O)[C@H](Cc1ccc(O)cc1)NC(=O)[C@H](CCCCN)NC(=O)[C@H](CO)NC(=O)[C@H](Cc1ccc(O)cc1)NC(=O)[C@H](CC(=O)O)NC(=O)[C@H](CO)NC(=O)[C@@H](NC(=O)[C@H](Cc1ccccc1)NC(=O)[C@@H](NC(=O)CNC(=O)[C@H](CCC(N)=O)NC(=O)C(C)(C)NC(=O)[C@@H](N)Cc1c[nH]cn1)[C@@H](C)O)[C@@H](C)O)C(=O)N[C@@H](CCC(=O)O)C(=O)N[C@@H](Cc1ccccc1)C(=O)N[C@H](C(=O)N[C@@H](CCC(=O)O)C(=O)N[C@@H](Cc1c[nH]c2ccccc12)C(=O)N[C@@H](CC(C)C)C(=O)N[C@@H](CC(C)C)C(=O)N[C@@H](CCC(=O)O)C(=O)N[C@@H](C)C(=O)NCC(=O)NCC(=O)N1CCC[C@H]1C(=O)N[C@@H](CO)C(=O)N[C@@H](CO)C(=O)NCC(N)=O)C(C)C)C(=O)O)C(=O)O [Compound 26] (HELM PEPTIDE1{H.[Aib].Q.G.T.F.T.S.D.Y.S.K.Y.L.E.E.K.R.A.K.E.F.V.E.W.L.L.E.A.G.G.P.S.S.G.[am]}|PEPTIDE2{[CCCCCCCCCCCCCCCC(=O)[*:2]].[gGlu].[gGlu]}$PEPTIDE1,PEPTIDE2,20:R3-3:R2$$$V2.0; N-terminus assumed)
1720 (≈ 380 µM)	1510 (≈ 334 µM)	0.024	–	> 2000	> 2000	CC(C)C[C@H](NC(=O)[C@H](Cc1c[nH]c2ccccc12)NC(=O)[C@H](CCC(=O)O)NC(=O)[C@@H](NC(=O)[C@H](Cc1ccccc1)NC(=O)[C@H](CCC(=O)O)NC(=O)[C@H](CCCCNC(=O)COCCOCCNC(=O)COCCOCCNC(=O)CC[C@H](NC(=O)CCCCCCCCCCCCCCCCC(=O)O)C(=O)O)NC(=O)[C@H](C)NC(=O)[C@H](CCCCN)NC(=O)[C@H](CCCNC(=N)N)NC(=O)[C@H](CCC(=O)O)NC(=O)[C@H](CC(=O)O)NC(=O)[C@H](CC(C)C)NC(=O)[C@H](Cc1ccc(O)cc1)NC(=O)[C@H](CCCCN)NC(=O)[C@H](CO)NC(=O)[C@H](Cc1ccc(O)cc1)NC(=O)[C@H](CC(=O)O)NC(=O)[C@H](CO)NC(=O)[C@@H](NC(=O)[C@H](Cc1ccccc1)NC(=O)[C@@H](NC(=O)CNC(=O)[C@H](CCC(N)=O)NC(=O)C(C)(C)NC(=O)[C@@H](N)Cc1c[nH]cn1)[C@@H](C)O)[C@@H](C)O)C(C)C)C(=O)N[C@@H](CCC(=O)O)C(=O)N[C@@H](C)C(=O)NCC(=O)NCC(=O)N1CCC[C@H]1C(=O)N[C@@H](CO)C(=O)N[C@@H](CO)C(=O)NCC(N)=O [Compound 42] (H-H[Aib]QGTFTSDYSKYLDERKAK([AEEA-AEEA-γGlu-C18 diacid])EFVEWLEAGGPSSG-NH2; N-terminus assumed)
